Laboratory results published in US20230257423A1, “COMPOSITIONS FOR TREATING EPITHELIAL BARRIER FUNCTION DISORDERS” (ENTEROME, priority 2020, published 2023).

Tests used:
[1] = tested on: PBMC derived DCs; assay: Array (transcriptomics) on PBMC derived DCs; assay type: cell-based, human; parameters: SLC39A14 gene expression / IL6 gene expression / CCL1 gene expression / CCL8 gene expression / TNF-α gene expression: unit not given here; conditions: 3 donors, 6h, TNF-α 10 ng/ml, PHA 3 μg/ml, LPS 3 ng/ml, PAM3CSK4 10 ng/ml, MDP 5 μg/ml
Procedure: DCs from three different donors were seeded at 1.0×10^5 DCs/well in a 48 well plate in 0.5 ml of complete IMDM. The effect of the active fractions of the F4 clone was compared to the same fractions purified from the negative control (pBAD-fractions). TNF-α (10 ng/ml), PHA (3 μg/ml), LPS (3 ng/ml), PAM3CSK4 (10 ng/ml), and MDP 5 μg/ml were used as control.
Data were generated and analyzed using Spotfire software.
Transcriptomics was carried out on PBMC derived DCs from 3 donors.
DCs were stimulated (6h) with: • TNFα, PHA, LPS, PAM3CSK4, MDP=Positive control • F13, F25=HPLC fractions obtained from the complemented and functional F4D5-MsbA1-A2 clone • F4D5-pBAD-F13, F4D5-pBAD-F25=HPLC fractions obtained from the F4D5-pBADclone (negative control)
Data analysis was realised using TIBCO Spotfire software. The F4 fractions (from both positive and negative clones) were analysed individually and compared to known agonists (TNFα, PHA, LPS, PAM3CSK4, MDP).

[2] = tested on: Monocyte-derived Dendritic Cells; assay: AlphaLISA IL10 secretion by dendritic cells; assay type: cell-based, human; conditions: for IL-10 secretion from DCs in co-stimulation with TLR activators: LPS 100 ng/ml or FIMH 10 μg/ml, mean of 3 MoDC donors, FIG. 9
Procedure: Dendritic Cells (DCs) were prepared from PBMC (Buffy Coat) and differentiated with GM-CSF (D 1:10000; =5 μl/50 ml) and IL-4 (D 1:5000; =10 μl/50 ml).
In this test, 30,000 cells/well were seeded in complete IMDM media (2 mM L-glutamine, 50 IU/mL penicillin, […] streptomycin, 10 mM Hepes and 10% heat-inactivated foetal calf serum) in 96 wells plates 24h before activation (and kept in a humidified 5% CO2 atmosphere at 37° C.). Pre-purified, or HPLC-eluted, fractions as well as EB7020 chemically synthetized and various controls were added to reporter cells at 10% vol/vol to a final volume of 100 μl.
AlphaLisa (Perkin Elmer) was realized on supernatant according the supplier protocol (for complete references: AlphaLISA® Research Reagents Human Interleukin 10 (IL10) Kit Product No.: AL218 C/F sold by PerkinElmer).

Row | Compound | CCL1 gene expression [1] | CCL8 gene expression [1] | IL6 gene expression [1] | PERP gene expression [1] | PMP22 gene expression [1] | SLC39A14 gene expression [1] | TNF-α gene expression [1] | IL-10 secretion from DCs in co-stimulation with TLR activators [2] | IL-10 secretion from human DCs ([2]; chemically synthesized compound, in presence of LPS, FIG. 8)
1 | CC(=O)N[C@@H]1[C@@H](O[C@H](C)C(=O)N[C@@H](C)C(=O)N[C@H](CCC(=O)O)C(N)=O)[C@H](O)[C@@H](CO)O[C@H]1O [MDP] | 3.1 | 4.1 | 9.4 | 1.6 | 1.0 | 0.9 | 3.5 | – | –
2 | PAM3CSK4 | 30.6 | 64.8 | 718.1 | 2.6 | 1.0 | 1.6 | 28.4 | – | –
3 | CC(=O)NC1C(OP(=O)(O)OP(=O)(O)OC[C@H]2O[C@@H](n3ccc(=O)[nH]c3=O)C(O)C2O)OC(CO)C(O)C1OC(C)C(=O)NC(C)C(=O)NC(CCC(=O)NC(CCCC(N)C(=O)O)C(=O)NC(C)C(=O)O)C(=O)O (stereo partly shown) [EB7022, UDP-M-Tetrapeptide] | – | – | – | – | – | – | – | Synergy | –
4 | CC(=O)N[C@H]1[C@@H](OP(=O)(O)OP(=O)(O)OC[C@H]2O[C@@H](n3ccc(=O)[nH]c3=O)[C@H](O)[C@@H]2O)O[C@H](CO)[C@@H](O)[C@@H]1O[C@H](C)C(=O)N[C@@H](C)C(=O)N[C@H](CCC(=O)N[C@@H](CCC[C@@H](N)C(=O)O)C(=O)O)C(=O)O [EB7021, UDP-M-Tri-DAP] | – | – | – | – | – | – | – | Synergy | –
5 | CC(=O)NC1C(OP(=O)(O)O)OC(CO)C(O)C1OC(C)C(=O)NC(C)C(=O)NC(CCC(=O)NC(CCCC(N)C(=O)O)C(=O)O)C(=O)O (stereo not shown) [EB7020, M-Tri-DAP monophosphate] | – | – | – | – | – | – | – | Synergy | IL-10 secretion is induced
6 | TNF-α | 4.2 | 11.2 | 32.9 | 1.0 | 0.8 | 1.2 | 5.6 | – | –
